In patent publication EP4417602A1, “SUBSTITUTED PYRAZOLE CARBOXAMIDES, SALTS THEREOF AND THEIR USE AS HERBICIDALLY ACTIVE SUBSTANCES” (Bayer AG, priority 2023, dated 2024):

Tests used:
[1] = tested on: LOLRI; test: B. Herbicidal post-emergence action on harmful plants (Tables B); format: in vivo, Lolium rigidum; settings: application rate 1280 g/ha; Table B3
Method: Seeds of mono- and dicotyledonous weed plants were placed in plastic pots in sandy loam soil (doubly sown with in each case one species of mono- or dicotyledonous weed plants per pot), covered with soil and cultivated in a greenhouse under controlled growth conditions. 2 to 3 weeks after sowing, the test plants were treated at the one-leaf stage. The compounds of the invention, formulated in the form of wettable powders (WP) or as emulsion concentrates (EC), were applied onto the green parts of the plants as aqueous suspension or emulsion with addition of 0.5% additive at a water application rate of 600 liters per hectare (converted). After the test plants had been kept in the greenhouse under optimum growth conditions for about 3 weeks, the activity of the preparations was rated visually in comparison to untreated controls. For example, 100% activity = the plants have died, 0% activity = like control plants. Tables B1 to B12, below, show the effects of selected compounds of the general formula (I) according to table 1 on various harmful plants and an application rate corresponding to 1280 g/ha or below obtained by the experimental procedure mentioned above. Table B1a: post-emergence activity at 1280g/ha against ABUTH in %

[2] = tested on: POLCO; test: C. Herbicidal pre-emergence action, weed and crop plants (Tables C); format: in vivo, Polygonum convolvulus; settings: application rate 320 g/ha; Table C9
From the text: Seeds of mono- and dicotyledonous weed plants and crop plants were sown, in plastic or organic planting pots, in sandy loam and covered with soil. The compounds according to the invention, formulated in the form of wettable powders (WP) or as emulsifiable concentrates (EC), were applied to the surface of the covering soil as aqueous suspension or emulsion, with the addition of 0.5% of an additive, at an application rate of 6001 of water/ha (converted). Following treatment, the pots were placed in a greenhouse and kept under optimum growth conditions for the test plants. The visual grading of the damage to the test plants was carried out after ca. 3 weeks in comparison to untreated controls (herbicidal effect in percent (%): 100% effect = plants have died off, 0% effect = as control plants). Tables C1 to C12 below show the effects of selected compounds of the general formula (I) according to table 1 on various harmful plants and an application rate corresponding to 320 g/ha or below obtained by the experimental procedure mentioned above. Table C1: pre-emergence activity at 320g/ha against KCHSC in %

[3] = tested on: ABUTH; test: A. Herbicidal pre-emergence action on harmful plants (Tables A); format: in vivo, Abutilon theophrasti; settings: application rate 1280 g/ha; visual grading after ca. 3 weeks vs untreated controls; 100% = plants have died off, 0% = as control plants
From the text: Seeds of mono- and dicotyledonous weed plants were sown in plastic pots (double sowings with one species of mono- and one species of dicotyledonous weed plants per pot), in sandy loam, and covered with soil. The compounds according to the invention, formulated in the form of wettable powders (WP) or as emulsifiable concentrates (EC), were applied to the surface of the covering soil as aqueous suspension or emulsion, with the addition of 0.5% of an additive, at an application rate of 6001 of water per hectare (converted). Following treatment, the pots were placed in a greenhouse and kept under optimum growth conditions for the test plants. The visual grading of the damage to the test plants was carried out after ca. 3 weeks in comparison to untreated controls (herbicidal effect in percent (%): 100% effect = plants have died off, 0% effect = as control plants). Tables A1 to A12, below, show the effects of selected compounds of the general formula (I) according to table 1 on various harmful plants and an application rate corresponding to 1280 g/ha or below obtained by the experimental procedure mentioned above. Table A1: pre-emergence activity at 1280g/ha against ABUTH in %

[4] = tested on: MATIN; test: B. Herbicidal post-emergence action on harmful plants (Tables B); format: in vivo, Matricaria inodora; settings: application rate 1280 g/ha; Table B4a
How it was run: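 Activity was scored visually as % damage (100% = dead, 0% = like untreated) about 3 weeks after treatment. Plants at the one-leaf stage, 2-3 weeks old, were sprayed with WP/EC formulations plus 0.5% additive (600 L/ha water, up to 1280 g/ha). Plants were grown in sandy loam in a greenhouse.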

[5] = tested on: MATIN; test: E. Herbicidal post-emergence action, weed and crop plants (Tables E); format: in vivo, Matricaria inodora; settings: application rate 320 g/ha, visual assessment after ca. 3 weeks
From the text: (§1) Seeds of mono- and dicotyledonous weed plants and crop plants were sown, in plastic or organic planting pots, in sandy loam, covered with soil and grown in a greenhouse under controlled growth conditions. 2 to 3 weeks after sowing, the test plants were sprayed in the single-leaf stage. The compounds according to the invention, formulated in form of wettable powders (WP) or as emulsifiable concentrates (EC), were sprayed onto the green plant parts as aqueous suspension or emulsion, with the addition of 0.5% of an additive, at an application rate of 6001 of water/ha (converted). The test plants were placed in the greenhouse for ca. 3 weeks under optimum growth conditions, and then the effect of the preparations was assessed visually in comparison with untreated controls (herbicidal effect in percent (%): 100% effect = plants have died off, 0% effect = as control plants). Tables E1 to E7 below show the effects of selected compounds of the general formula (I) according to table 1 on various harmful plants and an application rate corresponding to 320 g/ha or below obtained by the experimental procedure mentioned above. Table E1: post-emergence activity at 320g/ha against ALOMY in %

[6] = tested on: VERPE; test: A. Herbicidal pre-emergence action on harmful plants (Tables A); format: in vivo, Veronica persica; settings: application rate 1280 g/ha; Table A11
How it was run: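 Greenhouse pre-emergence test: compound applied to the soil surface at 1280 g/ha or below, and herbicidal effect rated visually at ca. 3 weeks on a 0–100% scale against untreated plants.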

[7] = tested on: VERPE; test: E. Herbicidal post-emergence action, weed and crop plants (Tables E); format: in vivo, Veronica persica; settings: application rate 320 g/ha, visual assessment after ca. 3 weeks
From the text: as §1

## C=C(c1ccccc1F)C1CCCN1C(=O)c1cn(C)nc1COC (racemic) [Example I-023]
[1]
  post-emergence activity against LOLRI: 90%
[2]
  pre-emergence activity against POLCO: 80%

## COCc1c(C(=O)N2CCCC2Cc2ccccc2Cl)cnn1C (racemic) [Example I-170]
[3]
  pre-emergence activity against ABUTH: 90%
[1]
  post-emergence activity against LOLRI: 90%
[4]
  post-emergence activity against MATIN: 90%
[5]
  post-emergence activity against MATIN in %: 80%

## COCc1c(C(=O)N2CCCC2Cc2ccccc2F)cnn1C (single isomer, unassigned) [Example I-157]
[6]
  pre-emergence activity against VERPE: 90%

## Cn1cc(C(=O)N2CCCC2Cc2ccccc2F)c(COc2ccccc2)n1 (racemic) [Example I-006]
[6]
  pre-emergence activity against VERPE: 100%

## COCc1nn(C)cc1C(=O)N1CCCC1Cc1ccccc1F (single isomer, unassigned) [Example I-003]
[7]
  post-emergence activity against VERPE in %: 80%
